From ChEMBL document CHEMBL4257571, “Discovery of 5-(2-chloro-4'-(1H-imidazol-1-yl)-[1,1'-biphenyl]-4-yl)-1H-tetrazole as potent and orally efficacious S-nitrosoglutathione reductase (GSNOR) inhibitors for the potential treatment of COPD” (Bioorg Med Chem Lett, 2018) come the findings set out here.

pIC50: −log10 of the molar value.

For series [1], the target named is Alcohol dehydrogenase class-3 (Homo sapiens, UniProt P11766). Nature of the series: Inhibition of human GSNOR assessed as reduction in NADH consumption after 3 mins by spectrophotometric analysis.
The nature of series [2]: Metabolic stability of human liver microsomes assessed as parent compound remaining at 0.1 uM after 60 mins in presence of NADPH by LC/MS/MS analysis. It counts as ADME, microsome. As to conditions: read-out: Stability. For orientation: Liver microsomes are vesicles of endoplasmic reticulum, rich in cytochrome P450 enzymes.
Series [3] is described as follows: Metabolic stability of rat liver microsomes assessed as parent compound remaining at 0.1 uM after 60 mins in presence of NADPH by LC/MS/MS analysis. It counts as ADME, microsome. As to conditions: read-out: Stability.
Series [4] is described as follows: Metabolic stability of mouse liver microsomes assessed as parent compound remaining at 0.1 uM after 60 mins in presence of NADPH by LC/MS/MS analysis. It counts as ADME, microsome. As to conditions: read-out: Stability.
A further series deals with T1, CYP1A2 (Homo sapiens, UniProt P05177).
T1 sequence (P05177 whole entry): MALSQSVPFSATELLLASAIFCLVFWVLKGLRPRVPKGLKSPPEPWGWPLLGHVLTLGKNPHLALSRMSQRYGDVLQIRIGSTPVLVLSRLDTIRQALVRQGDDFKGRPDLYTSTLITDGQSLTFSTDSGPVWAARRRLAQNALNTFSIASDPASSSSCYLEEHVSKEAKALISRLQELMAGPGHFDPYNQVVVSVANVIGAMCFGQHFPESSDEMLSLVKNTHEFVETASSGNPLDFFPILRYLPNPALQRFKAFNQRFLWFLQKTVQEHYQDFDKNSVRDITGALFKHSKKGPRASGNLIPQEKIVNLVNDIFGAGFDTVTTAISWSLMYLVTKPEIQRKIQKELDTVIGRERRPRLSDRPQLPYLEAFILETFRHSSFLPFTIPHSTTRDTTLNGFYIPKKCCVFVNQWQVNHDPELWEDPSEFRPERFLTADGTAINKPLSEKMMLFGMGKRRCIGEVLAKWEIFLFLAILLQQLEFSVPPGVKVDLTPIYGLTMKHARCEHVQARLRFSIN
The experiment in a line: (§1) Inhibition of CYP1A2 in human liver microsomes at 10 uM after 20 mins in presence of NADPH by LC/MS/MS analysis relative to control. Type of series: ADME. As to conditions: liver microsomes.

The target of the next series is CYP2D6 (Homo sapiens, UniProt P10635). The experiment in a line: (§2) Inhibition of CYP2D6 in human liver microsomes at 10 uM after 20 mins in presence of NADPH by LC/MS/MS analysis relative to control. It counts as ADME. Particulars: liver microsomes.
A further series deals with CYP3A4 (Homo sapiens, UniProt P08684). Nature of the series: (§3) Inhibition of CYP3A4 in human liver microsomes at 10 uM after 20 mins in presence of NADPH by LC/MS/MS analysis relative to control. Type of series: ADME. Particulars: liver microsomes.
The target of another series is CYP2C9 (Homo sapiens, UniProt P11712). The experiment in a line: Inhibition of CYP2C9 in human liver microsomes at 10 uM after 20 mins in presence of NADPH by LC/MS/MS analysis relative to control. It counts as ADME.
The target of another series is CYP2C19 (Homo sapiens, UniProt P33261). Nature of the series: Inhibition of CYP2C19 in human liver microsomes at 10 uM after 40 mins in presence of NADPH by LC/MS/MS analysis relative to control. It counts as ADME.
A short description of series [5]: Clearance in C57/BL6 mouse at 3 mg/kg, iv. Type of series: ADME, organism-based. Particulars: in vivo.
Series [6] in a line: Volume of distribution in C57/BL6 mouse at 3 mg/kg, iv. Type of series: ADME, organism-based. Particulars: in vivo, read-out: Vz.
Series [7] can be described thus: Half life in C57/BL6 mouse at 3 mg/kg, iv. Type of series: ADME, organism-based. As to conditions: in vivo.
The nature of series [8]: Cmax in C57/BL6 mouse at 30 mg/kg, po. It counts as ADME, organism-based. The arrangement: dose 30 mg/kg, route oral. As to conditions: in vivo.
A short description of series [9]: AUC (0 to 24 hrs) in C57/BL6 mouse at 30 mg/kg, po. As to conditions: in vivo. Set-up: time < 24 hr, dose 30 mg/kg, route oral. It counts as ADME, organism-based.
A short description of series [10]: Tmax in C57/BL6 mouse at 30 mg/kg, po. Type of series: ADME, organism-based. Particulars: in vivo.
Series [11] can be described thus: Half life in C57/BL6 mouse at 30 mg/kg, po. Particulars: in vivo. It counts as ADME, organism-based.
Series [12] in a line: Oral bioavailability in C57/BL6 mouse at 30 mg/kg. Type of series: ADME, organism-based. As to conditions: in vivo.
Series [13] can be described thus: Ratio of drug uptake in lung to plasma of C57/BL6 mouse at 3 mg/kg, iv or 30 mg/kg, po. Type of series: ADME, organism-based.
The test system of series [14] is Mus musculus. The experiment in a line: Anti-inflammatory activity in C57BL/6 mouse model of cigarette smoke induced chronic obstructive pulmonary disease assessed as total leukocyte count in bronchoalveolar lavage at 5 mg/kg, po BID administered 1 hr prior to both smoke exposure for 7 days by hemocytometry. It counts as functional.
Series [15] concerns Mus musculus. Nature of the series: Anti-inflammatory activity in C57BL/6 mouse model of cigarette smoke induced chronic obstructive pulmonary disease assessed as neutrophil level in bronchoalveolar lavage at 5 mg/kg, po BID administered 1 hr prior to both smoke exposure for 7 days by Leishman's staining based assay. Type of series: functional.
Series [16] has as its system Mus musculus. The experiment in a line: Anti-inflammatory activity in C57BL/6 mouse model of cigarette smoke induced chronic obstructive pulmonary disease assessed as macrophages level in bronchoalveolar lavage at 5 mg/kg, po BID administered 1 hr prior to both smoke exposure for 7 days by Leishman's staining based assay. It counts as functional.
A further series addresses T2, Cytochrome P450 1A2 (Homo sapiens, UniProt P05177).
T2 sequence (P05177 whole entry): T1 sequence (P05177 whole entry)
The series is described as §1. It counts as ADME. As to conditions: microsomes, 20 min, 10 µM.

For the next series, the target named is Cytochrome P450 2D6 (Homo sapiens, UniProt P10635). The series is described as §2. It counts as ADME. As to conditions: microsomes, 20 min, 10 µM.
In a further series the target is Cytochrome P450 3A4 (Homo sapiens, UniProt P08684). The series is described as §3. It counts as ADME. Particulars: microsomes, 20 min, 10 µM.
Chain of Cytochrome P450 3A4 (P08684 whole entry): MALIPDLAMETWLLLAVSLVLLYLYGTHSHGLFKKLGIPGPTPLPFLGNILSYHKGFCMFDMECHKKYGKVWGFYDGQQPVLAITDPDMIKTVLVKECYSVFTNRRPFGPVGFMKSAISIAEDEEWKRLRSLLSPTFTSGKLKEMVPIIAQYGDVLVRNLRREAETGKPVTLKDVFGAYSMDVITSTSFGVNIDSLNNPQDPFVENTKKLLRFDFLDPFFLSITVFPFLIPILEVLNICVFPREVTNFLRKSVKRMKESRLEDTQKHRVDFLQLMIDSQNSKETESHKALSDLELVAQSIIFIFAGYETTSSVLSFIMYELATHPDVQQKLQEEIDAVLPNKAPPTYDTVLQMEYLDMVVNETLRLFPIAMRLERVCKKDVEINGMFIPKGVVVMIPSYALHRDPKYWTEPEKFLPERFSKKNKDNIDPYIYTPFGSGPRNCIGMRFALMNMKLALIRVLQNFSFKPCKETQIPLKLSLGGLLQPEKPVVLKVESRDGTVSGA

Chain of CYP2C9 (P11712 whole entry): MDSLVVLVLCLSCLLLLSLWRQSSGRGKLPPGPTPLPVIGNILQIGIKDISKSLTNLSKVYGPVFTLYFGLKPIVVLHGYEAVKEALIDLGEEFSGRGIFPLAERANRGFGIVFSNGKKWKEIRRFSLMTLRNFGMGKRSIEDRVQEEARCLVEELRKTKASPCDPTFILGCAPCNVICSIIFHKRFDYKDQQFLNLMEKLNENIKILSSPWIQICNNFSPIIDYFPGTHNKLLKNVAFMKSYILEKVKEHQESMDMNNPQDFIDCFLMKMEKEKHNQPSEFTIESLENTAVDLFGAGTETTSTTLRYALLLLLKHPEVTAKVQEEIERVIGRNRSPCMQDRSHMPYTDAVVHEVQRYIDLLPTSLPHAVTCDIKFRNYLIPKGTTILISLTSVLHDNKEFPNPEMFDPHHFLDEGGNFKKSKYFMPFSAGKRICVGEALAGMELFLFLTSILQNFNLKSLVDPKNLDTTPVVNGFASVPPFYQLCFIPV
Chain of Alcohol dehydrogenase class-3 (P11766 whole entry): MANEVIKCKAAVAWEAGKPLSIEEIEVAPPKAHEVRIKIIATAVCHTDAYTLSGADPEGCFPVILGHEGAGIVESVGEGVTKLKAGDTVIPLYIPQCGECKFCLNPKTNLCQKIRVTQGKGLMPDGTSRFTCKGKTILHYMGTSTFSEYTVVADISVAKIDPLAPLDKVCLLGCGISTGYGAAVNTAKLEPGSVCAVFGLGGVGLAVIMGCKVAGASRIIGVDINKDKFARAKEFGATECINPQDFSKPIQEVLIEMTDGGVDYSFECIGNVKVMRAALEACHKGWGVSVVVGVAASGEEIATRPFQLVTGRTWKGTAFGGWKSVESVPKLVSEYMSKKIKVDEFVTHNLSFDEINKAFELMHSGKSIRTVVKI
Chain of CYP2C19 (P33261 whole entry): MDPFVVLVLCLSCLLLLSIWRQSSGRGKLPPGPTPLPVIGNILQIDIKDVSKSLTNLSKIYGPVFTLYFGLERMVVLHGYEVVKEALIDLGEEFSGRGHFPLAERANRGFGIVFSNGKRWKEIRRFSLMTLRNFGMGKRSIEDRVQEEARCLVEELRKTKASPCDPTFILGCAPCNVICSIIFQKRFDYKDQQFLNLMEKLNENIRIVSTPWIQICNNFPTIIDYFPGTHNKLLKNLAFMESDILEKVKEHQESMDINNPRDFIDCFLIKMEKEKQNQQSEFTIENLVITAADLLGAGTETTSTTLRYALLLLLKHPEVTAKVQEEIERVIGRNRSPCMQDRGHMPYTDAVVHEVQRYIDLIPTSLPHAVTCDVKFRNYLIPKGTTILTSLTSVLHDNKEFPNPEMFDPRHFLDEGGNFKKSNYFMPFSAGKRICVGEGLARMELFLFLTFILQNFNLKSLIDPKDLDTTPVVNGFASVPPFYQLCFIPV
Chain of Cytochrome P450 2D6 (P10635 whole entry): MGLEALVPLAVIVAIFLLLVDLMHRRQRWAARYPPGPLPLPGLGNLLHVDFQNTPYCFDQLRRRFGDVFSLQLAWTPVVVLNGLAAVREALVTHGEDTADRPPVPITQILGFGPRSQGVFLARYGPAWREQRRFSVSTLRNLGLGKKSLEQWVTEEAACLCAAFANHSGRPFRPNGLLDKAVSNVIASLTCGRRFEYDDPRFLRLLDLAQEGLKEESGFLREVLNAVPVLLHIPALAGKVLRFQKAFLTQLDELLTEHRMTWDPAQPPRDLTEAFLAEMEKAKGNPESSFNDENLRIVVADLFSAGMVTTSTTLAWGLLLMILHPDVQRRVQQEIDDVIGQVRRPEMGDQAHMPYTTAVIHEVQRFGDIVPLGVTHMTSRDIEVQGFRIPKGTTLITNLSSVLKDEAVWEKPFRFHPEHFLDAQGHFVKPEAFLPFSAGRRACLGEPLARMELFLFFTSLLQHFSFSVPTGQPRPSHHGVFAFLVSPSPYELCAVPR
Chain of CYP3A4 (P08684 whole entry): as the sequence (P08684 whole entry) above
Chain of CYP2D6 (P10635 whole entry): as the sequence (P10635 whole entry) above

Usually pIC50 stands for −log10 of the IC50, conventionally taken in molar units. What is called inhibition is the relative decrease from the control value, in per cent. For orientation: clearance means the rate of elimination divided by the concentration. A high value points to efficient removal. By half-life is commonly meant the time needed for the level to fall by half in the phase considered. A low value points to rapid decline. The Cmax is the peak of the concentration-time curve. The term AUC(0-t) denotes exposure summed from dosing to a finite time, without extrapolation to infinity. Broadly, the Tmax is the time at which the peak concentration occurs. One may read the bioavailability as the share of a dose that reaches the circulation, judged against a reference dose that is usually intravenous. A higher bioavailability goes with good availability. As usually defined, the Kp is the ratio of the level in a tissue or fluid to that in plasma or blood. Take `Cc1cc(-n2ccnc2)cnc1-c1ccc(-c2nnn[nH]2)cc1F`: the pIC50 in series [1] is 7.85. The remaining at 1 h, 0.1 µM in series [2] was found to be 100%; in [3], 53%; in series [4], 42%. The inhibition at 20 min, 10 µM is -15% at CYP1A2, 12% at CYP2D6, 19% at CYP3A4 and 60% on CYP2C9. In addition, the inhibition at 40 min, 10 µM on CYP2C19 came out at 45%. For the same molecule, in [5], the clearance amounted to 17 mL/min/kg. In series [6], the Vd came to 2.8 L/kg. In addition, the results for the half-life in [7] and in series [11] were 1.9 h and 5.3 h, respectively. Moreover, the peak level in [8] (Cmax) was 2560 ng/mL. This molecule also yielded an AUC(0-t) at 24 h in [9] of 14200 ng·h/mL. In addition, the Tmax in series [10] was 0.5 h. Also, the bioavailability in series [12] is 49%. The partition ratio (Kp) in [13] stood at 0.62.

As to `O=C(Nc1c(Cl)cncc1Cl)c1ccc(OC(F)F)c(OCC2CC2)c1` [ROFLUMILAST], the Activity with Mus musculus [14] came to 58%; with Mus musculus [15], 40%; with Mus musculus [16], 75%.

As for `Fc1cc(-c2nnn[nH]2)ccc1-c1ncc(-n2ccnc2)cc1Cl`, the negative-log IC50 (pIC50) in [1] was 7.57. The “inhibition (INH)” value on Cytochrome P450 1A2, at Cytochrome P450 2D6 and at Cytochrome P450 3A4 was “Not Active” each time. Besides, at CYP2C9, the inhibition at 20 min, 10 µM was 50%. In addition, the inhibition at 40 min, 10 µM at CYP2C19 was found to be 42%.

In the case of `CCc1cc(-n2ccnc2C)ccc1-c1ccc(-c2nnn[nH]2)cc1`, the negative logarithm of the IC50 (pIC50) in series [1] was 7.62. Also, the figures for the remaining at 1 h, 0.1 µM in series [2], in series [3] and in series [4] were 5%, 99% and 87%, respectively. Also, the inhibition at 20 min, 10 µM amounted to 13% at CYP1A2, 18% at CYP3A4 and 48% at CYP2C9. On Cytochrome P450 2D6, the “inhibition (INH)” value is “Not Active”. Besides, at CYP2C19, the inhibition at 40 min, 10 µM was found to be 67%.
